{"source": "patent US9073855B2", "about": "“BCL-2 selective apoptosis-inducing agents for the treatment of cancer and immune diseases” (AbbVie Inc., priority 2008, dated 2015)", "key": {"[1]": {"biological_target": "GST-Bcl-2 (Homo sapiens, UniProt P10415)", "sequence (P10415 whole entry, the tested form may be a part)": "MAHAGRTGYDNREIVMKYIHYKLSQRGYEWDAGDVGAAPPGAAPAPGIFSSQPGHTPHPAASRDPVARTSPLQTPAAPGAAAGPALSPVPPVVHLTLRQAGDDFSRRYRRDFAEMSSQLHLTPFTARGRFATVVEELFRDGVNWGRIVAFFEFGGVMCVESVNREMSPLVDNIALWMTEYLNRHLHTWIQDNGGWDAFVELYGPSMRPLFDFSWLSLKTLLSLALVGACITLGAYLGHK", "test": "TR-FRET binding assay, GST-Bcl-2 with F-Bak peptide probe", "details": "for Ki: TR-FRET Binding Affinity", "summary_of_the_method": "(§1)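 Competitive TR-FRET: GST-fusion protein, fluorescent Bak peptide probe and Tb-labelled anti-GST antibody incubated with compound dilution series (starting 50 μM as 2× stock, 10% DMSO) for 3 h at RT. Excitation 340/35 nm; Ki derived via Wang's exact competitive-binding equation.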"}, "[2]": {"biological_target": "GST-Bcl-XL (Homo sapiens, UniProt Q07817)", "sequence (Q07817 whole entry)": "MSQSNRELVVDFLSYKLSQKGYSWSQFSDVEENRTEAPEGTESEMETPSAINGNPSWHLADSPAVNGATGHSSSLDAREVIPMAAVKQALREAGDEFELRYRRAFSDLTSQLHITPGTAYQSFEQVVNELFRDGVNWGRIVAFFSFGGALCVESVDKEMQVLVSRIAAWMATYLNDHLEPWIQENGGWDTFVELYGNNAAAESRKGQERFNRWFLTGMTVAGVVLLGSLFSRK", "test": "TR-FRET binding assay, GST-Bcl-XL with F-Bak peptide probe", "details": "TR-FRET Binding Affinity", "summary_of_the_method": "as §1"}, "[3]": {"details": "TR-FRET, Bcl-XL Ki divided by Bcl-2 Ki"}, "[4]": {"details": "ratio of TR-FRET Ki values, Bcl-XL over Bcl-2"}, "[5]": {"details": "GST-Bcl-XL, F-Bak peptide probe"}}}
{"smiles": "CC1(C)CC(c2ccc(Cl)cc2)=C(CN2CCN(c3ccc(C(=O)NS(=O)(=O)c4ccc(OCC5(F)CCOCC5)c(Cl)c4)c(Oc4cccc5[nH]ncc45)c3)CC2)CO1", "note": "[Example 496, N-({3-chloro-4-[(4-fluorotetrahydro-2H-pyran-4-yl)methoxy]phenyl}sulfonyl)-4-(4-{[4-(4-chlorophenyl)-6,6-dimethyl-5,6-dihydro-2H-pyran-3-yl]methyl}piperazin-1-yl)-2-(1H-indazol-4-yloxy)benzamide]", "values": [{"measurement": "Ki", "setting": "[1]", "result": 0.078, "unit": "nM"}, {"measurement": "Binding selectivity ratio (Bcl-XL Ki/Bcl-2 Ki)", "setting": "[1]; [3]", "result": 558.9}, {"measurement": "Ki", "setting": "[2]", "result": 43.3, "unit": "nM"}]}
{"smiles": "O=C(NS(=O)(=O)c1cnc(OCC2(F)CCOCC2)c(Cl)c1)c1ccc(N2CCN(CC3=C(c4ccc(Cl)cc4)CCC(F)(F)C3)CC2)cc1Oc1cccc2[nH]ncc12", "note": "[Example 521, N-({5-chloro-6-[(4-fluorotetrahydro-2H-pyran-4-yl)methoxy]pyridin-3-yl}sulfonyl)-4-(4-{[2-(4-chlorophenyl)-5,5-difluorocyclohex-1-en-1-yl]methyl}piperazin-1-yl)-2-(1H-indazol-4-yloxy)benzamide]", "values": [{"measurement": "Ki", "setting": "[1]", "result": "< 0.01", "unit": "nM"}, {"measurement": "Binding selectivity ratio (Bcl-XL Ki/Bcl-2 Ki)", "setting": "[1]; [3]", "result": ">466.9"}, {"measurement": "Ki", "setting": "[2]", "result": 4.67, "unit": "nM"}]}
{"smiles": "CC1(C)CCC(CN2CCN(c3ccc(C(=O)NS(=O)(=O)c4ccc(N[C@H]5CC[C@H](N6CCOCC6)CC5)c([N+](=O)[O-])c4)c(Oc4cccc5[nH]cnc45)c3)CC2)=C(c2ccc(Cl)cc2)C1", "note": "[Example 452, Trans-2-(1H-benzimidazol-4-yloxy)-4-(4-{[2-(4-chlorophenyl)-4,4-dimethylcyclohex-1-en-1-yl]methyl}piperazin-1-yl)-N-({4-[(4-morpholin-4-ylcyclohexyl)amino]-3-nitrophenyl}sulfonyl)benzamide]", "values": [{"measurement": "Ki", "setting": "[1]", "result": "< 0.01", "unit": "nM"}, {"measurement": "Binding selectivity ratio (Bcl-XL Ki/Bcl-2 Ki)", "setting": "[1]; [3]", "result": 600.4}, {"measurement": "Ki", "setting": "[2]", "result": 6, "unit": "nM"}]}
{"smiles": "CC1(C)CCC(CN2CCN(c3ccc(C(=O)NS(=O)(=O)c4ccc(OCC5COCCO5)c([N+](=O)[O-])c4)c(Oc4cccc5[nH]ncc45)c3)CC2)=C(c2ccc(Cl)cc2)C1", "note": "(stereo not shown) [Example 447, 4-(4-{[2-(4-chlorophenyl)-4,4-dimethylcyclohex-1-en-1-yl]methyl}piperazin-1-yl)-N-{[4-(1,4-dioxan-2-ylmethoxy)-3-nitrophenyl]sulfonyl}-2-(1H-indazol-4-yloxy)benzamide]", "values": [{"measurement": "Ki", "setting": "[1]", "result": 0.028, "unit": "nM"}, {"measurement": "Ki", "setting": "[2]", "result": 65.8, "unit": "nM"}]}
{"smiles": "CC1(C)CCC(CN2CCN(c3ccc(C(=O)NS(=O)(=O)c4ccc(NC5CCN(C6CC6)CC5)c([N+](=O)[O-])c4)c(Oc4cccc5[nH]cnc45)c3)CC2)=C(c2ccc(Cl)cc2)C1", "note": "[Example 451, 2-(1H-benzimidazol-4-yloxy)-4-(4-{[2-(4-chlorophenyl)-4,4-dimethylcyclohex-1-en-1-yl]methyl}piperazin-1-yl)-N-({4-[(1-cyclopropylpiperidin-4-yl)amino]-3-nitrophenyl}sulfonyl)benzamide]", "values": [{"measurement": "Ki", "setting": "[1]", "result": "< 0.01", "unit": "nM"}, {"measurement": "Binding selectivity ratio (Bcl-XL Ki/Bcl-2 Ki)", "setting": "[1]; [3]", "result": 359.9}, {"measurement": "Ki", "setting": "[2]", "result": 3.6, "unit": "nM"}]}
{"smiles": "CC1(C)CCC(CN2CCN(c3ccc(C(=O)NS(=O)(=O)c4ccc(NCC5CCOCC5)c([N+](=O)[O-])c4)c(Oc4ccccc4)c3)CC2)=C(c2ccc(Cl)cc2)C1", "note": "[Example 460, 4-(4-{[2-(4-chlorophenyl)-4,4-dimethylcyclohex-1-en-1-yl]methyl}piperazin-1-yl)-N-({3-nitro-4-[(tetrahydro-2H-pyran-4-ylmethyl)amino]phenyl}sulfonyl)-2-phenoxybenzamide]", "values": [{"measurement": "Ki", "setting": "[1]", "result": 0.049, "unit": "nM"}, {"measurement": "Ki", "setting": "[2]", "result": 29, "unit": "nM"}]}
{"smiles": "CC1(C)CCC(CN2CCN(c3ccc(C(=O)NS(=O)(=O)c4ccc(NC5CCN(C6CCOCC6)CC5)c([N+](=O)[O-])c4)c(Nc4cccnc4)c3)CC2)=C(c2ccc(Cl)cc2)C1", "note": "[Example 397, 4-(4-{[2-(4-chlorophenyl)-4,4-dimethylcyclohex-1-en-1-yl]methyl}piperazin-1-yl)-N-({3-nitro-4-[(1-tetrahydro-2H-pyran-4-ylpiperidin-4-yl)amino]phenyl}sulfonyl)-2-(pyridin-3-ylamino)benzamide]", "values": [{"measurement": "Ki", "setting": "[1]; GST-Bcl-2, F-Bak peptide probe", "result": 23, "unit": "nM"}, {"measurement": "Binding selectivity ratio (Bcl-XL Ki/Bcl-2 Ki)", "setting": "[1]; [4]", "result": ">28730.6"}, {"measurement": "Ki", "setting": "[2]; [5]", "result": "> 660000", "unit": "nM"}]}
{"smiles": "CO[C@H]1CC[C@H](CNc2ccc(S(=O)(=O)NC(=O)c3ccc(N4CCN(CC5=C(c6ccc(Cl)cc6)CC(C)(C)CC5)CC4)cc3Oc3cccc4[nH]ncc34)cc2[N+](=O)[O-])CC1", "note": "[Example 446, Trans-4-(4-{[2-(4-chlorophenyl)-4,4-dimethylcyclohex-1-en-1-yl]methyl}piperazin-1-yl)-2-(1H-indazol-4-yloxy)-N-[(4-{[(4-methoxycyclohexyl)methyl]amino}-3-nitrophenyl)sulfonyl]benzamide]", "values": [{"measurement": "Ki", "setting": "[1]", "result": 0.038, "unit": "nM"}, {"measurement": "Binding selectivity ratio (Bcl-XL Ki/Bcl-2 Ki)", "setting": "[1]; [3]", "result": 508.4}, {"measurement": "Ki", "setting": "[2]", "result": 19.3, "unit": "nM"}]}
{"smiles": "CC1(C)CCC(CN2CCN(c3ccc(C(=O)NS(=O)(=O)c4cnc(NCC5(F)CCOCC5)c(Cl)c4)c(Oc4cccc5[nH]ncc45)c3)CC2)=C(c2ccc(Cl)cc2)C1", "note": "[Example 413, N-[(5-chloro-6-{[(4-fluorotetrahydro-2H-pyran-4-yl)methyl]amino}pyridin-3-yl)sulfonyl]-4-(4-{[2-(4-chlorophenyl)-4,4-dimethylcyclohex-1-en-1-yl]methyl}piperazin-1-yl)-2-(1H-indazol-4-yloxy)benzamide]", "values": [{"measurement": "Ki", "setting": "[1]; GST-Bcl-2, F-Bak peptide probe", "result": 0.12, "unit": "nM"}, {"measurement": "Binding selectivity ratio (Bcl-XL Ki/Bcl-2 Ki)", "setting": "[1]; [4]", "result": 803.8}, {"measurement": "Ki", "setting": "[2]; [5]", "result": 96.8, "unit": "nM"}]}
{"smiles": "CN(C)CC(=O)N1CCO[C@@H](COc2ncc(S(=O)(=O)NC(=O)c3ccc(N4CCN(CC5=C(c6ccc(Cl)cc6)CC(C)(C)CC5)CC4)cc3Oc3cccc4[nH]cnc34)cc2Cl)C1", "note": "[Example 424, 2-(1H-benzimidazol-4-yloxy)-N-[(5-chloro-6-{[(2R)-4-(N,N-dimethylglycyl)morpholin-2-yl]methoxy}pyridin-3-yl)sulfonyl]-4-(4-{[2-(4-chlorophenyl)-4,4-dimethylcyclohex-1-en-1-yl]methyl}piperazin-1-yl)benzamide]", "values": [{"measurement": "Ki", "setting": "[1]; GST-Bcl-2, F-Bak peptide probe", "result": "< 0.01", "unit": "nM"}, {"measurement": "Binding selectivity ratio (Bcl-XL Ki/Bcl-2 Ki)", "setting": "[1]; [4]", "result": 782.5}, {"measurement": "Ki", "setting": "[2]; [5]", "result": 7.82, "unit": "nM"}]}
{"smiles": "CC1(C)CCC(c2ccc(Cl)cc2)=C(CN2CCN(c3ccc(C(=O)NS(=O)(=O)c4ccc(NCCCN5CCOCC5)c([N+](=O)[O-])c4)c(Oc4ccccc4)c3)CC2)C1", "note": "[Example 19, 4-(4-{[2-(4-chlorophenyl)-5,5-dimethylcyclohex-1-en-1-yl]methyl}piperazin-1-yl)-N-({4-[(3-morpholin-4-ylpropyl)amino]-3-nitrophenyl}sulfonyl)-2-phenoxybenzamide]", "values": [{"measurement": "Ki", "setting": "[1]; GST-Bcl-2, F-Bak peptide probe", "result": 0.847, "unit": "nM"}, {"measurement": "Ki", "setting": "[2]; [5]", "result": 20, "unit": "nM"}]}
{"smiles": "CC1(C)CCC(CN2CCN(c3ccc(C(=O)NS(=O)(=O)c4cnc(OCC5(F)CCOCC5)c(F)c4)c(Oc4cccc5[nH]cnc45)c3)CC2)=C(c2ccc(Cl)cc2)C1", "note": "[Example 442, 2-(1H-benzimidazol-4-yloxy)-4-(4-{[2-(4-chlorophenyl)-4,4-dimethylcyclohex-1-en-1-yl]methyl}piperazin-1-yl)-N-({5-fluoro-6-[(4-fluorotetrahydro-2H-pyran-4-yl)methoxy]pyridin-3-yl}sulfonyl)benzamide]", "values": [{"measurement": "Ki", "setting": "[1]", "result": "< 0.01", "unit": "nM"}, {"measurement": "Ki", "setting": "[2]", "result": 33.6, "unit": "nM"}]}
{"smiles": "CC1(C)CN(c2ccc(S(=O)(=O)NC(=O)c3ccc(N4CCN(Cc5ccccc5-c5ccc(Cl)cc5)CC4)cc3Oc3ccccc3)cc2)C1=O", "note": "[Example 30, 4-{4-[(4′-chloro-1,1′-biphenyl-2-yl)methyl]piperazin-1-yl}-N-{[4-(3,3-dimethyl-2-oxoazetidin-1-yl)phenyl]sulfonyl}-2-phenoxybenzamide]", "values": [{"measurement": "Ki", "setting": "[1]; GST-Bcl-2, F-Bak peptide probe", "result": 103, "unit": "nM"}, {"measurement": "Ki", "setting": "[2]; [5]", "result": "> 660", "unit": "nM"}]}
{"smiles": "CN(C)CCOc1cccc(-c2ccc(Cl)cc2)c1CN1CCN(c2ccc(C(=O)NS(=O)(=O)c3ccc(NCC4CCOCC4)c(S(=O)(=O)C(F)(F)F)c3)c(Oc3ccccc3)c2)CC1", "note": "[Example 124, 4-[4-({4′-chloro-3-[2-(dimethylamino)ethoxy]-1,1′-biphenyl-2-yl}methyl)piperazin-1-yl]-2-phenoxy-N-({4-[(tetrahydro-2H-pyran-4-ylmethyl)amino]-3-[(trifluoromethyl)sulfonyl]phenyl}sulfonyl)benzamide]", "values": [{"measurement": "Ki", "setting": "[1]; GST-Bcl-2, F-Bak peptide probe", "result": 0.335, "unit": "nM"}, {"measurement": "Ki", "setting": "[2]; [5]", "result": 73.7, "unit": "nM"}]}
{"smiles": "CC1(C)CCC(CN2CCN(c3ccc(C(=O)NS(=O)(=O)c4cnc(OC[C@]5(F)CC[C@](C)(O)CC5)c(Cl)c4)c(Oc4cccc5[nH]ncc45)c3)CC2)=C(c2ccc(Cl)cc2)C1", "note": "[Example 513, N-({5-chloro-6-[(trans-1-fluoro-4-hydroxy-4-methylcyclohexyl)methoxy]pyridin-3-yl}sulfonyl)-4-(4-{[2-(4-chlorophenyl)-4,4-dimethylcyclohex-1-en-1-yl]methyl}piperazin-1-yl)-2-(1H-indazol-4-yloxy)benzamide]", "values": [{"measurement": "Ki", "setting": "[1]", "result": "< 0.01", "unit": "nM"}, {"measurement": "Binding selectivity ratio (Bcl-XL Ki/Bcl-2 Ki)", "setting": "[1]; [3]", "result": ">646.2"}, {"measurement": "Ki", "setting": "[2]", "result": 6.46, "unit": "nM"}]}
{"smiles": "O=C(NS(=O)(=O)c1ccc(NCC2CCOCC2)c([N+](=O)[O-])c1)c1ccc(N2CCN(Cc3cc(OCCN4CCOCC4)ccc3-c3ccc(Cl)cc3)CC2)cc1Oc1ccc2[nH]ccc2c1", "note": "[Example 127, 4-(4-{[4′-chloro-4-(2-morpholin-4-ylethoxy)-1,1′-biphenyl-2-yl]methyl}piperazin-1-yl)-2-(1H-indol-5-yloxy)-N-({3-nitro-4-[(tetrahydro-2H-pyran-4-ylmethyl)amino]phenyl}sulfonyl)benzamide]", "values": [{"measurement": "Ki", "setting": "[1]; GST-Bcl-2, F-Bak peptide probe", "result": 0.459, "unit": "nM"}, {"measurement": "Ki", "setting": "[2]; [5]", "result": "> 660", "unit": "nM"}]}
{"smiles": "CN(C)CCCNc1ccc(S(=O)(=O)NC(=O)c2ccc(N3CCN(Cc4ccccc4-c4ccc(Cl)cc4)CC3)cc2Oc2ccc3cc[nH]c3c2)cc1[N+](=O)[O-]", "note": "[Example 47, 4-{4-[(4′-chloro-1,1′-biphenyl-2-yl)methyl]piperazin-1-yl}-N-[(4-{[3-(dimethylamino)propyl]amino}-3-nitrophenyl)sulfonyl]-2-(1H-indol-6-yloxy)benzamide]", "values": [{"measurement": "Ki", "setting": "[1]; GST-Bcl-2, F-Bak peptide probe", "result": 6.63, "unit": "nM"}, {"measurement": "Ki", "setting": "[2]; [5]", "result": 104, "unit": "nM"}]}
